Results on three compounds are retold here after PMC7659001, “The auxin-inducible degron 2 technology provides sharp degradation control in yeast, mammalian cells, and mice” (Nature Communications, 2020).

What all share (format): cell-based
Test [1] deals with T1, OsTIR1 (Oryza sativa, UniProt Q7XVM8).
T1 construct: gene Os04g0395600
T1 sequence (Q7XVM8 1-575): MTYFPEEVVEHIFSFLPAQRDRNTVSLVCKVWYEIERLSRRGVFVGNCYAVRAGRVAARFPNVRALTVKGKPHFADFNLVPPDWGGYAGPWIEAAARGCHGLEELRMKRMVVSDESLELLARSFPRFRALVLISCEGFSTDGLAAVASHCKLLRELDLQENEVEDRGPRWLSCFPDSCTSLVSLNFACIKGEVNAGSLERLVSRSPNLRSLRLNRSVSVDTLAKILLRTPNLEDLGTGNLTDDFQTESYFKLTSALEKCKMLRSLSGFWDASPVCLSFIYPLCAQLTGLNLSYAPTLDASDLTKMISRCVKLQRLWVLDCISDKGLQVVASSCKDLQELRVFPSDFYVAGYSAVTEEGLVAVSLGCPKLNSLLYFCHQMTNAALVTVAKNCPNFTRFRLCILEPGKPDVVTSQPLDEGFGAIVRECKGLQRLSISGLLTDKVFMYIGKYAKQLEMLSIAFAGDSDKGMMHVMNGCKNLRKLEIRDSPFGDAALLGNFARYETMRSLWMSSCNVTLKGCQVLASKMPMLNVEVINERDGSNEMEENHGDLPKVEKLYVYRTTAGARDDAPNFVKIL
The test is described as follows: OsTIR1(WT) level in HCT116 cells raised by the inhibitor (suppressed autodegradation).

Test [2] addresses T2, OsTIR1 (Oryza sativa subsp. japonica, UniProt P93830+Q7XVM8, Q7XVM8:F74G).
T2 construct: gene Os04g0395600; with mAID degron (Arabidopsis IAA17); SCF (Skp1-Cul1)
The test is described as follows: mAID-EGFP-NLS reporter degradation dose response in HCT116 cells (DC50).

Test [3] deals with T3, OsTIR1 (Oryza sativa subsp. japonica, UniProt P93830+Q7XVM8).
T3 construct: gene Os04g0395600; with mAID degron (Arabidopsis IAA17); SCF (Skp1-Cul1)
T3 sequence (P93830 whole entry, one chain of several): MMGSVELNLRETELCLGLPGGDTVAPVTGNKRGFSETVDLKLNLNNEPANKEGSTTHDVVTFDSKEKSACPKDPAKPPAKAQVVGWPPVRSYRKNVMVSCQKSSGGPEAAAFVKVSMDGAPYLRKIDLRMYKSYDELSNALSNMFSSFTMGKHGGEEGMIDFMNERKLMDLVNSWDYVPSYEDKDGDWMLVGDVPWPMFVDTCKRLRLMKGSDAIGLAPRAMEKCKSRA
Described as above.

T2 sequence (Q7XVM8 whole entry F74G): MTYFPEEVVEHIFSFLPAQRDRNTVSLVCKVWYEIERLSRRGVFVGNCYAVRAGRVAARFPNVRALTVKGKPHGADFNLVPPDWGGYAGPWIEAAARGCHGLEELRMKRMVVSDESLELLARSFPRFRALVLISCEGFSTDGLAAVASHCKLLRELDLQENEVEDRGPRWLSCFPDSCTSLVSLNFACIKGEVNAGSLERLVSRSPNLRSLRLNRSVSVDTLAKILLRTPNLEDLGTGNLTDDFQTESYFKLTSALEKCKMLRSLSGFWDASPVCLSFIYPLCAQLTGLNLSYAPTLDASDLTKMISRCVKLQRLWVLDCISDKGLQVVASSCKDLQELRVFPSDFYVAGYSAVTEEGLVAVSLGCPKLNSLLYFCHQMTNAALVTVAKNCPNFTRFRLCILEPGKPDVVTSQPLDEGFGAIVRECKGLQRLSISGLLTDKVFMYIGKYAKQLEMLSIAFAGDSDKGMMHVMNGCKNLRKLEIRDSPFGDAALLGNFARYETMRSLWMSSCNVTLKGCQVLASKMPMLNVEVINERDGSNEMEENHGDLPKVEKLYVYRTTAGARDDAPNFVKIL
T2 sequence (P93830 65-132 limits assumed): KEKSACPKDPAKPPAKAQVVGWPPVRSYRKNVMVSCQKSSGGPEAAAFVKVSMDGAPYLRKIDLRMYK

In the case of `Cc1ccc(C(=O)CC(C(=O)O)c2c[nH]c3ccccc23)c(C)c1` (stereo not drawn) [auxinole], at OsTIR1 [1], the “OsTIR1(WT) level in HCT116 cells raised by the inhibitor (suppressed autodegrada)” value is “The expression level of OsTIR1(WT) was enhanced by the addition of an OsTIR1 inhibitor auxinole”.

For `O=C(O)Cc1c[nH]c2ccc(-c3ccccc3)cc12` [5-Ph-IAA, 5-phenyl-indole-3-acetic acid], the DC50 (commonly the midpoint of the concentration-degradation curve) on OsTIR1 [2] is 0.45 ± 0.01 nM.

`O=C(O)Cc1c[nH]c2ccccc12` [IAA, indole-3-acetic acid] displayed a DC50 on OsTIR1 [3] of 300 ± 30 nM.
